pIC50: −log10 of the molar value. Read-outs that look alike come from different tables or passages of the source.
How the values were obtained:
A2780 cells [1] = assay: MTT reduction assay, early toxicity, 4 h treatment; format: cell-based
Procedure: (§1) The complexes described above are intended to replace registered platinum complexes. Platinum complexes constitute the core of the chemotherapy regimen used in ovarian cancer; therefore, we used a cellular model of ovarian cancer, A2780, and primary human dermal fibroblasts as models of non-transformed cells (controls). For the characterization of the complexes, we used an MTT assay after 4 h of treatment for the detection of early toxicity and an SRB assay 48 h after treatment for the detection of cytostasis.
(§2) An MTT reduction assay was measures the activity of mitochondrial complex I and can be used to detect toxicity. The assay was performed in a manner similar to that described in [84]. Briefly, cells were plated in 96-well plates the day before the assay. Cells were treated with the compounds for 4 h; then, MTT was added to a 0.5 mg/mL final concentration, and cells were incubated at 37 °C in a cell incubator for 40–60 min as a function of the cell line being assessed. Culture medium was removed, the reduced MTT dye was dissolved in dimethyl-sulfoxide, and plates were measured in a plate photometer (Thermo Scientific Multiscan GO spectrophotometer, Waltham, MA, USA) at 540 nm. On each plate, wells were designed to contain vehicle-treated cells. In calculations, the readings for these wells were considered to 1, and all readings were expressed relative to these values.
(§3) Statistical analysis was performed using version 8.0.1 of GraphPad Prism. Values were tested for normal distribution using the Shapiro–Wilk normality test. Nonlinear regression was performed using the built-in “[Inhibitor] vs. response—Variable slope (four parameters), least square fit” utility of GraphPad, which yielded IC50 and Hill slope values if the sigmoid curves reached a plateau of inhibition and there was no decrease between two subsequent data points or when inhibition was over 90%. In other cases, the percentage of inhibition was taken for the maximum concentration (100 μM).

[2] = test system: primary human dermal fibroblasts; assay: MTT reduction assay, early toxicity, 4 h treatment; format: cell-based; conditions: up to 100 μM
Procedure: as §1, §2, §3

A2780 cells [3] = assay: SRB binding assay, cytostasis, 48 h treatment; format: cell-based; conditions: for A2780 SRB Max Inhibition: up to 100 μM, ND = not detectable
Procedure: as §1
(§4) An SRB assay measures protein content of cells in correlation with the cell number in an assay well and can therefore be used to assess cell proliferation or long-term cytostasis. Cells were seeded in 96-well plates the day before the assay. Cells were treated with the compounds for 48 h. Then medium was removed, and cells were fixed with 10% trichloroacetic acid. Fixed cells were washed in distilled water 3 times, followed by staining with SRB (0.4 m/V% dissolved in 1% acetic acid) for 10 min. Stained cells were washed in 1% acetic acid 5 times; acetic acid was removed, and cells were left to dry. Protein-bound SRB was released by adding 100 μL 10 mM Tris base. Plates were measured in a plate photometer (Thermo Scientific Multiscan GO spectrophotometer, Waltham, MA, USA) at 540 nm. On each plate, wells were designed to contain vehicle-treated cells. In calculations, the readings for these wells were considered to be 1, and all readings were expressed relative to these values.
as §3

[4] = Distribution coefficient (logD), n-octanol-PBS; format: physicochemical; conditions: n-octanol-PBS (pH = 7.4) system
Procedure: The logD values of the newly synthesized complexes were determined according to a procedure described in our previous publications. page 64: Ir-7b +1.17 Rh-7b +1.41 Ru-7c +1.31 Os-7c +1.59 Ir-7c +1.40 Rh-7c +1.13 Ru-7d +1.26 Os-7d +1.42 Ir-7d +1.30 Rh-7d +1.04 Ru-7e +2.22 Os-7e +2.21 Ir-7e +1.39 Rh-7e +1.66 *logD was determined in an n-octanol-PBS (pH = 7.4) system 64 (14 pictures or pasted objects on this page, not shown here)

[5] = test system: Enterococcus faecalis (ATCC29212); assay: Broth microdilution MIC, reference strain; format: cell-based; conditions: 24 h, tested range 0.08–40 μM, read-out: MIC E. faecalis ATCC 29,212
Procedure: (§5) The reference strains of Staphylococcus aureus (ATCC29213) and Enterococcus faecalis (ATCC29212) were purchased from the ATCC (Manassas, VA, USA).
(§6) Microdilution experiments were performed according to the standards of EUCAST [85]. The bacterial isolates to be tested were grown on Mueller–Hinton agar plates. The inoculum density of bacteria was set at 5.0 × 10^5 CFU/mL in microtiter plates in a final volume of 200 μL Mueller–Hinton broth. The tested concentration range was 0.08–40 μM (10 concentrations, twofold serial dilutions), and a drug-free growth control and an inoculum-free negative control were included. The inoculated plates were incubated for 24 h at 37 °C, then visually assessed. Minimum inhibitory concentration (MIC) was defined as the lowest concentration with a 50%≤ inhibitory effect compared to the growth control. All experiments were performed at least twice in duplicate.

[6] = test system: Staphylococcus aureus (ATCC29213); assay: Broth microdilution MIC, reference strain; format: cell-based; conditions: 0.08–40 μM, read-out: MIC S. aureus ATCC 29213
Procedure: as §5, §6

[7] = test system: vancomycin-resistant Enterococcus (VRE) clinical isolates; assay: Broth microdilution MIC, clinical VRE isolates; format: cell-based, E. faecium; conditions: 24 h, 0.08–40 μM
Procedure: (§7) We used a set of clinical isolates of S. aureus and E. faecium that were collected at the Medical Center of the University of Debrecen (Hungary) between 1 January 2018. and 31 December 2020. The clinical isolates were identified using a Microflex MALDI-TOF mass spectrometer (Bruker, Billerica, MA, USA). The antibiotic susceptibility of the isolates was tested following the European Committee on Antimicrobial Susceptibility Testing (EUCAST) guidelines, which were valid at the time of collection.
as §6

[8] = test system: methicillin-resistant Staphylococcus aureus (MRSA) clinical isolates; assay: Broth microdilution MIC, clinical MRSA isolates; format: cell-based; conditions: 24 h, 0.08–40 μM
Procedure: as §7, §6

[9] = test system: primary human dermal fibroblasts; assay: SRB binding assay, cytostasis, 48 h treatment; format: cell-based; conditions: for Fibroblast SRB Max Inhibition: up to 100 μM, ND = not detectable
Procedure: as §1, §4, §3

[10] = inhibition at maximum concentration (100 μM) where no plateau, ND = not detectable
[11] = clinical isolate 25,051 VRE, read-out: MIC 25,051 VRE
[12] = clinical isolate 25,498 VRE, read-out: MIC 25,498 VRE
[13] = clinical isolate 27,085 VRE, read-out: MIC 27,085 VRE
[14] = clinical isolate 20,426 MRSA, read-out: MIC 20,426 MRSA
[15] = clinical isolate 24,035 MRSA, read-out: MIC 24,035 MRSA
[16] = clinical isolate 24,268 MRSA, read-out: MIC 24,268 MRSA
[17] = clinical isolate 24,272 MRSA, read-out: MIC 24,272 MRSA
[18] = clinical isolate 24,328 MRSA, read-out: MIC 24,328 MRSA
[19] = clinical isolate 24,408 MRSA, read-out: MIC 24,408 MRSA

Row | SMILES | A2780 MTT Max Inhibition (A2780 cells [1]; [10]) [%] | Fibroblast MTT Max Inhibition [2] [%] | pIC50 (A2780 cells [3]) | A2780 SRB Max Inhibition (A2780 cells [3]) [%] | logD [4] | MIC [5] [µM] | MIC ([6]; 24 h) [µM] | MIC [7, 11] [µM] | MIC [7, 12] [µM] | MIC [7, 13] [µM] | MIC [8, 14] [µM] | MIC [8, 15] [µM] | MIC [8, 16] [µM] | MIC [8, 17] [µM] | MIC [8, 18] [µM] | MIC [8, 19] [µM] | Fibroblast SRB Max Inhibition [9] [%] | pIC50 (A2780 cells [1]) | further results
1 | Cc1ccc(C(C)C)cc1.F[P-](F)(F)(F)(F)F.NC1C(c2cccnn2)OC(COC(=O)c2ccccc2)C(OC(=O)c2ccccc2)C1OC(=O)c1ccccc1.[Cl][Ru+] (mixture of isomers) [Ru-7b] | 68.22 | 47.04 | 4.75 | >90 | 1.39 | 10 | 20 | 10 | 10 | 10 | 10 | 10 | 10 | 20 | 20 | 10 | – | – | –
2 | N[C@@H]1[C@@H](OC(=O)c2ccccc2)[C@H](OC(=O)c2ccccc2)[C@@H](COC(=O)c2ccccc2)O[C@H]1c1ccccn1 [Complex 7a, 2-(2′-Amino-2′-deoxy-3′,4′,6′-tri-O-benzoyl-β-D-glucopyranosyl)pyridine] | – | 27.02 | – | 76.24 | – | – | – | – | – | – | – | – | – | – | – | – | 26.00 | – | inhibition at 100 µM (A2780 cells [1]; Homo sapiens, inhibition at maximum concentration (100 μM) where no plateau, ND = not detectable, read-out: A2780 MTT Max Inhibition): 18.6%; MIC ([5]; Enterococcus faecalis): > 40 µM; MIC ([6]; Staphylococcus aureus, ATCC29213, 24 h): > 40 µM; MIC ([7]; Enterococcus, clinical isolate 25,051 VRE, read-out: MIC 25,051 VRE): > 40 µM; MIC ([7]; Enterococcus, clinical isolate 25,498 VRE, read-out: MIC 25,498 VRE): > 40 µM; MIC ([7]; Enterococcus, clinical isolate 27,085 VRE, read-out: MIC 27,085 VRE): > 40 µM; MIC ([8]; Staphylococcus aureus, clinical isolate 20,426 MRSA, read-out: MIC 20,426 MRSA): > 40 µM; MIC ([8]; Staphylococcus aureus, clinical isolate 24,035 MRSA, read-out: MIC 24,035 MRSA): > 40 µM; MIC ([8]; Staphylococcus aureus, clinical isolate 24,268 MRSA, read-out: MIC 24,268 MRSA): > 40 µM; MIC ([8]; Staphylococcus aureus, clinical isolate 24,272 MRSA, read-out: MIC 24,272 MRSA): > 40 µM; MIC ([8]; Staphylococcus aureus, clinical isolate 24,328 MRSA, read-out: MIC 24,328 MRSA): > 40 µM; MIC ([8]; Staphylococcus aureus, clinical isolate 24,408 MRSA, read-out: MIC 24,408 MRSA): > 40 µM
3 | Cc1c(C)c(C)[c-](C)c1C.F[P-](F)(F)(F)(F)F.N[C@@H]1[C@@H](OCc2ccccc2)[C@H](OCc2ccccc2)[C@@H](COCc2ccccc2)O[C@H]1c1ccccn1.[Cl][Ir+2] [Ir-3a] | 82.71 | – | 5.77 | >90 | 3.18 | 20 | 20 | 10 | 10 | 10 | 10 | 20 | 5 | 10 | 10 | 10 | – | – | pIC50 ([9]; read-out: Fibroblast SRB IC50): 4.85
4 | Cc1c(C)c(C)[c-](C)c1C.F[P-](F)(F)(F)(F)F.N[C@@H]1[C@@H](OC(=O)c2ccccc2)[C@H](OC(=O)c2ccccc2)[C@@H](COC(=O)c2ccccc2)O[C@H]1c1ccccn1.[Cl][Ir+2] [Ir-7a] | >90 | 65.18 | 5.21 | >90 | 1.08 | 40 | 20 | 40 | 40 | 40 | 10 | 10 | 10 | 10 | 20 | 10 | 56.31 | 4.93 | –
5 | Cc1ccc(C(C)C)cc1.F[P-](F)(F)(F)(F)F.N[C@@H]1[C@@H](OCc2ccccc2)[C@H](OCc2ccccc2)[C@@H](COCc2ccccc2)O[C@H]1c1cnccn1.[Cl][Os+] [Os-3d] | 86.83 | 73.24 | 5.17 | >90 | 2.64 | >40 | 40 | 40 | 40 | 40 | 40 | 40 | 40 | 40 | 40 | 40 | – | 4.49 | –
6 | Cc1ccc(C(C)C)cc1.F[P-](F)(F)(F)(F)F.N[C@@H]1[C@@H](OCc2ccccc2)[C@H](OCc2ccccc2)[C@@H](COCc2ccccc2)O[C@H]1c1cnccn1.[Cl][Ru+] [Ru-3d] | >90 | 80.31 | 5.42 | >90 | 2.06 | 20 | 20 | 20 | 20 | 20 | 20 | 20 | 20 | 20 | 20 | 20 | – | 4.71 | –

Source: PMC10096180, “Half-Sandwich Type Platinum-Group Metal Complexes of C-Glucosaminyl Azines: Synthesis and Antineoplastic and Antimicrobial Activities” (Molecules, 2023)
